Measurements reported in patent US12459974B2, “Bicyclic peptide ligands specific for Nectin-4” (priority 2018, dated 2025).
*1 amine or outer side, *2 acyl side, *3 side chain or, on linkers, in order; H or OH if unused. Where a SMILES comes first, the peptide text is derived from it. Bridges are numbered along the chain shown (N, C = ends). Roman numbers before positions name the chains, in order. [ ]: non-standard residue; d: D form. The star is where a group is joined. TATA = O=C(CC[*:1])N1CN(C(=O)CC[*:2])CN(C(=O)CC[*:3])C1; Dolaproine = CO[C@@H]([C@@H]1CCCN1)[C@@H](C)C(=O)O; Dil = CC[C@H](C)[C@H](NC)[C@@H](CC(=O)O)OC; X3 = O=C(CCCC(=O)[*:2])NCCC(=O)[*:1]; PABC = O=C(OCc1ccc(N[*:1])cc1)[*:2]; X4 = C[C@@H](N*)[C@@H](O)c1ccccc1; hArg = N=C(N)NCCCC[C@H](N)C(=O)O; Cit = NC(=O)NCCC[C@H](N)C(=O)O; NMeV = CN[C@H](C(=O)O)C(C)C; Sar = CNCC(=O)O

Legend:
human Nectin-4 [1] = target: T1, human Nectin-4 (Homo sapiens, UniProt Q96NY8); assay: Nectin-4 direct binding assay (fluorescence polarisation); details: fluorescently tagged peptide, TATA scaffold
T1 sequence (Q96NY8 32-510): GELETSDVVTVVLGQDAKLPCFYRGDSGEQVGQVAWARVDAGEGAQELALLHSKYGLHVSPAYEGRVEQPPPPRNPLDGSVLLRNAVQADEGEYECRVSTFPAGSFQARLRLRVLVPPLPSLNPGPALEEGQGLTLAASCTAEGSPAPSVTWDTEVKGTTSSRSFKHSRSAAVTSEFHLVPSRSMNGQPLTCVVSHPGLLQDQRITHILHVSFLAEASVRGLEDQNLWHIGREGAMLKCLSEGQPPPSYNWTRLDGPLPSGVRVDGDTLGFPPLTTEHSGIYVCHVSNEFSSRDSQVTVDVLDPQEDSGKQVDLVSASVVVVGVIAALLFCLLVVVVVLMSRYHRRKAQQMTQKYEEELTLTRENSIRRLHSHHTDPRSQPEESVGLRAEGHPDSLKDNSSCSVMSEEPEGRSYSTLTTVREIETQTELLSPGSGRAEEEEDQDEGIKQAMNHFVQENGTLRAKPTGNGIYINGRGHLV
Experimental: Affinity of the peptides of the invention for human Nectin-4 (Ki) was determined using a fluorescence polarisation assay, in accordance with the methods disclosed in WO 2016/067035. Peptides of the invention with a fluorescent tag (either fluorescein, SIGMA or Alexa Fluor488™, Fisher Scientific) were diluted to 2.5 nM in PBS with 0.01% tween 20 or 50 mM HEPES with 100 mM NaCl and 0.01% tween pH 7.4 (both referred to as assay buffer). This was combined with a titration of protein in the same assay buffer as the peptide to give 1 nM peptide in a total volume of 25 μL in a black walled and bottomed low bind low volume 384 well plates, typically 5 μL assay buffer, 10 μL protein then 10 μL fluorescent peptide. […] Measurements were conducted on a BMG PHERAstar FS equipped with an “FP 485 520 520” optic module which excites at 485 nm and detects parallel and perpendicular emission at 520 nm. The PHERAstar FS was set at 25° C. with 200 flashes per well and a positioning delay of 0.1 second, with each well measured at 5 to 10 minute intervals for 60 minutes. The gain used for analysis was determined for each tracer at the end of the 60 minutes where there was no protein in the well. Data was analysed using Systat Sigmaplot version 12.0. mP values were fit to a user defined quadratic equation to generate a Kd value: f=ymin+(ymax−ymin)/Lig*((x+Lig+Kd)/2-sqrt((((x+Lig+Kd)/2)^2)−(Lig*x))). […]

human Nectin-4 [2] = target: T1, human Nectin-4; assay: Nectin-4 competition binding assay (fluorescence polarisation); details: competition with fluorescent peptide SEQ ID NO: 217; read-out: Ki
Procedure, shortened: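 Serially diluted (1 in 2) peptides, max 5% DMSO, were mixed with human Nectin-4 and a fluorescent tracer peptide; FP read as in the direct binding assay. Ki from fitting mP values to a cubic competition equation using tracer concentration, tracer Kd and Nectin-4 concentration.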

human Nectin-4 [3] = target: T2, human Nectin-4 (Homo sapiens, UniProt Q96NY8); assay: Nectin-4 Biacore SPR binding assay
T2 sequence (Q96NY8 32-349): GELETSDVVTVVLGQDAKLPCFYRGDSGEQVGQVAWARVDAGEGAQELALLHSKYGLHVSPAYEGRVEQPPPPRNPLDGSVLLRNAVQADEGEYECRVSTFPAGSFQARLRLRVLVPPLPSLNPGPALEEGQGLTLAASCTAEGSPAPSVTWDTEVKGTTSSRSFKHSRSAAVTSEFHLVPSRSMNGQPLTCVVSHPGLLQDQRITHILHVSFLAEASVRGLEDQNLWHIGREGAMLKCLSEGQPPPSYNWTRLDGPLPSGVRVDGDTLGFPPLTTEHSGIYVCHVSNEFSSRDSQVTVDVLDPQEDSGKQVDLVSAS
Experimental: Biacore experiments were performed to determine ka (M^−1 s^−1), kd (s^−1), KD (nM) values of monomeric peptides binding to human Necin-4 protein (obtained from Charles River).
Human Nectin-4 (residues Gly32-Ser349; NCBI RefSeq: NP_112178.2) with a gp67 signal sequence and C-terminal FLAG tag was cloned into pFastbac-1 and baculovirus made using standard Bac-to-Bac™ protocols (Life Technologies). Sf21 cells at 1×10^6 ml^−1 in Excell-420 medium (Sigma) at 27° C. were infected at an MOI of 2 with a P1 virus stock and the supernatant harvested at 72 hours. […] The protein was eluted with 100 μg/ml FLAG peptide. The eluted protein was concentrated to 2 ml and loaded onto an S-200 Superdex column (GE Healthcare) in PBS at 1 ml/min. 2 ml fractions were collected and the fractions containing Nectin-4 protein were concentrated to 16 mg/ml.
The protein was extensively desalted to remove uncoupled biotin using spin columns into PBS.
For analysis of peptide binding, a Biacore 3000 instrument was used utilising a CM5 chip (GE Healthcare). Streptavidin was immobilized on the chip using standard amine-coupling chemistry at 25° C. with HBS-N (10 mM HEPES, 0.15 M NaCl, pH 7.4) as the running buffer. Briefly, the carboxymethyl dextran surface was activated with a 7 minute injection of a 1:1 ratio of 0.4 M 1-ethyl-3-(3-dimethylaminopropyl) carbodiimide hydrochloride (EDC)/0.1 M N-hydroxy succinimide (NHS) at a flow rate of 10 μl/min. For capture of streptavidin, the protein was diluted to 0.2 mg/ml in 10 mM sodium acetate (pH 4.5) and captured by injecting 120 μl of streptavidin onto the activated chip surface. Residual activated groups were blocked with a 7 minute injection of 1 M ethanolamine (pH 8.5) and biotinylated Nectin-4 captured to a level of 1,200-1,800 RU. Buffer was changed to PBS/0.05% Tween 20 and a dilution series of the peptides was prepared in this buffer with a final DMSO concentration of 0.5%. The top peptide concentration was 100 nM with 6 further 2-fold dilutions. The SPR analysis was run at 25° C. at a flow rate of 50 μl/min with 60 seconds association and dissociation between 400 and 1,200 seconds depending upon the individual peptide. Data were corrected for DMSO excluded volume effects. All data were double-referenced for blank injections and reference surface using standard processing procedures and data processing and kinetic fitting were performed using Scrubber software, version 2.0c (BioLogic Software). Data were fitted using simple 1:1 binding model allowing for mass transport effects where appropriate.

HT-1376 xenograft = assay: Example 2: in vivo efficacy in HT-1376 xenograft (bladder cancer model) in CB17-SCID mice; details: 1 mg/kg
Experimental: The major endpoint was to see if the tumor growth could be delayed or mice could be cured. Tumor volume was measured three times weekly in two dimensions using a caliper, and the volume was expressed in mm^3 using the formula: V=0.5 a×b^2 where a and b are the long and short diameters of the tumor, respectively. The tumor size was then used for calculations of T/C value. The T/C value (in percent) is an indication of antitumor effectiveness; T and C are the mean volumes of the treated and control groups, respectively, on a given day. TGI was calculated for each group using the formula: TGI (%)=[1−(Ti−T0)/(Vi−V0)]×100; Ti is the average tumor volume of a treatment group on a given day, T0 is the average tumor volume of the treatment group on the day of treatment start, Vi is the average tumor volume of the vehicle control group on the same day with Ti, and V0 is the average tumor volume of the vehicle group on the day of treatment start.
A one-way ANOVA was performed to compare tumor volume among groups, and when a significant F-statistics (a ratio of treatment variance to the error variance) was obtained, comparisons between groups were carried out with Games-Howell test. […] P<0.05 was considered to be statistically significant.
• Species: Mus Musculus • Strain: CB17-SCID • Age: 6-8 weeks • Sex: female • Body weight: 18-22 g • Number of animals: 21-41 mice plus spare • Animal supplier: Shanghai LC Laboratory Animal Co., LTD.
The HT-1376 tumor cells were maintained in vitro as a monolayer culture in EMEM medium supplemented with 10% heat inactivated fetal bovine serum at 37° C. in an atmosphere of 5% CO2 in air. The tumor cells were routinely subcultured twice weekly by trypsin-EDTA treatment.
Each mouse was inoculated subcutaneously at the right flank with HT-1376 tumor cells (5×10^6) in 0.2 ml of PBS with matrigel (1:1) for tumor development. Animals were randomized when the average tumor volume reached 153-164 mm^3.
Tumor growth inhibition rate for Test articles in the HT-1376 xenograft model was calculated based on tumor volume measurements at day 21 after the start of treatment.

| Structure (SMILES) | Ki (human Nectin-4 [1]) [nM] | Ki (human Nectin-4 [2]) [nM] | Kd (human Nectin-4 [3]) [nM] | bodyweight (in words) (HT-1376 xenograft) |
| --- | --- | --- | --- | --- |
| CC[C@H](C)[C@@H]1NC(=O)[C@H](CCCNC(=N)N)NC(=O)[C@H](CC(=O)O)NC(=O)[C@@H]2CSCCC(=O)N3CN(CN(C3)C(=O)CCSC[C@@H](C(=O)N[C@@H](C)C(N)=O)NC1=O)C(=O)CCSC[C@H](NC(=O)[C@H](Cc1c[nH]c3ccccc13)NC(=O)[C@H](CC(=O)O)NC(=O)[C@@H](N)C(C)C)C(=O)N[C@@H](C)C(=O)N1CCC[C@H]1C(=O)N[C@@H](CC(C)C)C(=O)N[C@@H](CC(=O)O)C(=O)N[C@@H](CC(=O)O)C(=O)N[C@@H](Cc1ccc(O)cc1)C(=O)N[C@@H](Cc1c[nH]c3ccccc13)C(=O)N2 [BCY462, VDW-(SEQ ID NO: 33)-A] (H-VDWCAPLDDYWCDRICA-NH2; linker 4-12-16 via TATA; N-terminus and C-terminus assumed) | 269 | – | – | – |
| CC[C@H](C)[C@@H]1NC(=O)[C@H](CCCNC(=N)N)NC(=O)[C@H](CC(N)=O)NC(=O)[C@@H]2CSCCC(=O)N3CN(CN(C3)C(=O)CCSC[C@@H](C(=O)N[C@@H](C)C(N)=O)NC1=O)C(=O)CCSC[C@H](NC(=O)[C@H](Cc1c[nH]c3ccccc13)NC(=O)[C@H](CCCCN)NC(=O)[C@@H](N)CCC(N)=O)C(=O)N[C@@H](C)C(=O)N1CCC[C@H]1C(=O)N[C@@H](CC(C)C)C(=O)N[C@@H](CO)C(=O)N[C@@H](CC(=O)O)C(=O)N[C@@H](Cc1ccc(O)cc1)C(=O)N[C@@H](Cc1c[nH]c3ccccc13)C(=O)N2 [BCY3400, QKW-(SEQ ID NO: 34)-A] (H-QKWCAPLSDYWCNRICA-NH2; linker 4-12-16 via TATA; N-terminus and C-terminus assumed) | 72 | 47 | – | – |
| CC(=O)N[C@H]1CSCCC(=O)N2CN3CN(C2)C(=O)CCSC[C@H](NC(=O)[C@H](CC(=O)O)NC(=O)[C@H](Cc2ccc(O)cc2)NC(=O)[C@H](CO)NC(=O)[C@H]([C@@H](C)O)NC(=O)[C@H]([C@@H](C)O)NC(=O)[C@H](C(C)C)NC1=O)C(=O)N[C@@H](Cc1c[nH]c2ccccc12)C(=O)N[C@@H](C(C)C)C(=O)N[C@@H]([C@@H](C)O)C(=O)N[C@@H](CC(C)C)C(=O)NCC(=O)N[C@@H](Cc1c[nH]cn1)C(=O)N[C@H](C(=O)N[C@@H](CO)C(=O)N[C@@H](CCCNC(=N)N)C(=O)N[C@@H](Cc1ccccc1)C(N)=O)CSCCC3=O [BCY7393, Ac-(SEQ ID NO: 37)-SRF] (Ac-CVTTSYDCWVTLGHCSRF-NH2; linker 1-8-15 via TATA; C-terminus assumed) | – | 232 | 1380 | – |
| CC[C@H](C)[C@@H]([C@@H](CC(=O)N1CCC[C@H]1[C@H](OC)[C@@H](C)C(=O)N[C@H](C)[C@@H](O)c1ccccc1)OC)N(C)C(=O)[C@@H](NC(=O)[C@H](C(C)C)N(C)C(=O)OCc1ccc(NC(=O)[C@H](CCCNC(N)=O)NC(=O)[C@@H](NC(=O)CCCC(=O)NCCC(=O)N(C)CC(=O)N(C)CC(=O)N(C)CC(=O)N(C)CC(=O)N(C)CC(=O)N(C)CC(=O)N(C)CC(=O)N(C)CC(=O)N(C)CC(=O)N(C)CC(=O)N[C@H]2CSCCC(=O)N3CN4CN(C3)C(=O)CCSC[C@H](NC(=O)[C@@H](CC(=O)O)NC(=O)[C@H](Cc3ccccc3)NC(=O)[C@@H]3CCCN3C2=O)C(=O)N[C@@H](CCSC)C(=O)N[C@@H](CCCCNC(=N)N)C(=O)N[C@@H](CC(N)=O)C(=O)N[C@@H](Cc2c[nH]c3ccccc23)C(=O)N[C@@H](CO)C(=O)N[C@@H]([C@@H](C)O)C(=O)N2CCC[C@H]2C(=O)N[C@@H]([C@@H](C)CC)C(=O)N[C@@H](Cc2c[nH]c3ccccc23)C(=O)N[C@H](C(N)=O)CSCCC4=O)C(C)C)cc1)C(C)C [BCY7825, MMAE-PABC-Cit-Val-Glutaryl-BCY7814] (I: [Sar][Sar][Sar][Sar][Sar][Sar][Sar][Sar][Sar][Sar]CPF[dD]CM[hArg]NWSTPIWC-NH2 / II: V[Cit][PABC][NMeV]V[Dil][Dolaproine]-X4; linker I:11-I:15-I:25 via TATA; linker I:N-II:N via X3) | – | – | 11.6 | maintained the bodyweight well |
| CC(=O)N[C@H]1CSCCC(=O)N2CN3CN(C2)C(=O)CCSC[C@H](NC(=O)[C@@H](CC(=O)O)NC(=O)[C@H](Cc2ccccc2)NC(=O)[C@@H]2CCCN2C1=O)C(=O)N[C@@H](CC(C)C)C(=O)N[C@@H](CCCCNC(=N)N)C(=O)N[C@@H](CC(N)=O)C(=O)N[C@@H](Cc1c[nH]c2ccccc12)C(=O)N[C@@H](CO)C(=O)N[C@@H]([C@@H](C)O)C(=O)N1CCC[C@H]1C(=O)N1CCC[C@H]1C(=O)N[C@@H](Cc1c[nH]c2ccccc12)C(=O)N[C@H](C(N)=O)CSCCC3=O [BCY8038, Ac-(SEQ ID NO: 160)] (Ac-CPF[dD]CL[hArg]NWSTPPWC-NH2; linker 1-5-15 via TATA; C-terminus assumed) | – | 8 | 44.5 | – |
